Assay results from US4104469A, “7-(Syn-α-alkoxy-iminofuryl)acetamido-3-(2-methyl-2,3-dihydro-s-t riazolo[4,3-b]pyridazin-3-on-6-ylthiomethyl)-3-cephem-4-carboxylic acids” (Bristol-Myers Company, priority 1977, dated 1978).
Counter-ions that a name gives are not always drawn. Like-named read-outs stand apart in the source and are kept apart here.

Tests used:
Type in all cases: cell-based
S. marcescens [1] = experiment: MIC against 18 strains of S. marcescens (Table 3); conditions: Serratia marcescens, read-out: Geometric Means of MIC's
Text: | Geometric Means of MIC's Against 18 Strains |of S. marcescens

E. coli [2] = experiment: MIC on Mueller-Hinton agar (Table 2); conditions: Escherichia coli, 6 strains, read-out: Geometric Means of MIC's
Text: (§1) Geometric Means of MIC's Against 3 Strains
(§2) of S. aureus and 27 Strains of Gram-negative Bacteria
(§3) (mcg./ml., Mueller-Hinton Agar)

E. coli, Cephalosporin-R = experiment: MIC on Mueller-Hinton agar (Table 2); conditions: Escherichia coli, 1 strain, read-out: Geometric Means of MIC's
Text: as §1, §2, §3

[3] = tested on: Indole (+) Proteus, Cephalosporin-R; experiment: MIC on Mueller-Hinton agar (Table 2); conditions: 2 strains, read-out: Geometric Means of MIC's
Text: as §1, §2, §3

P. aeruginosa = experiment: MIC on Mueller-Hinton agar (Table 2); conditions: Pseudomonas aeruginosa, 2 strains, read-out: Geometric Means of MIC's
Text: as §1, §2, §3

K. pneumoniae = experiment: MIC on Mueller-Hinton agar (Table 2); conditions: Klebsiella pneumoniae, 4 strains, read-out: Geometric Means of MIC's
Text: as §1, §2, §3

Shigella, Salmonella = experiment: MIC on Mueller-Hinton agar (Table 2); conditions: 5 strains, read-out: Geometric Means of MIC's
Text: as §1, §2, §3

S. aureus, Penicillin-R = experiment: MIC on Mueller-Hinton agar (Table 2); conditions: Staphylococcus aureus, 2 strains, read-out: Geometric Means of MIC's
Text: as §1, §2, §3

Indole (+) Proteus = experiment: MIC on Mueller-Hinton agar (Table 2); conditions: 3 strains, read-out: Geometric Means of MIC's
Text: as §1, §2, §3

S. marcescens [4] = experiment: MIC on Mueller-Hinton agar (Table 2); conditions: Serratia marcescens, 1 strain, read-out: Geometric Means of MIC's
Text: as §1, §2, §3

E. cloacae = experiment: MIC on Mueller-Hinton agar (Table 2); conditions: Enterobacter cloacae, 1 strain, read-out: Geometric Means of MIC's
Text: as §1, §2, §3

Indole (-) Proteus = experiment: MIC on Mueller-Hinton agar (Table 2); conditions: 2 strains, read-out: Geometric Means of MIC's
Text: as §1, §2, §3

E. coli [5] = experiment: In vitro antibacterial activity, Mueller-Hinton agar serial dilution (Table 1); conditions: Escherichia coli, 7 strains, serial dilution method, read-out: Geometric Mean of MIC
Text: (§4) In vitro Activity Using Mueller-Hinton Agar
(§5) By the Serial Dilution Method

[6] = tested on: Shig.(3), Serr.(1) Enterab.(1), Sal.(2) B. -B. (1); experiment: as above; conditions: pooled Shig.(3), serial dilution method, read-out: Geometric Mean of MIC
Text: as §4, §5

S. aureus = experiment: as above; conditions: Staphylococcus aureus, 3 strains, serial dilution method, read-out: Geometric Mean of MIC
Text: as §4, §5

Proteus = experiment: as above; conditions: read-out: Geometric Mean of MIC
Text: as §4, §5

D. pneumoniae = experiment: as above; conditions: Streptococcus pneumoniae, 5 strains, serial dilution method, read-out: Geometric Mean of MIC
Text: as §4, §5

N. gonorrhoeae = experiment: as above; conditions: Neisseria gonorrhoeae, 5 strains, serial dilution method, read-out: Geometric Mean of MIC
Text: as §4, §5

S. viridans = experiment: as above; conditions: Streptococcus viridans, 5 strains, serial dilution method, read-out: Geometric Mean of MIC
Text: as §4, §5

Kl. pneumoniae = experiment: as above; conditions: Klebsiella pneumoniae, 4 strains, serial dilution method, read-out: Geometric Mean of MIC
Text: as §4, §5

H. influenzae = experiment: as above; conditions: Haemophilus influenzae, 7 strains, serial dilution method, read-out: Geometric Mean of MIC
Text: as §4, §5

S. pyogenes = experiment: as above; conditions: Streptococcus pyogenes, read-out: Geometric Mean of MIC
Text: as §4, §5

N. meningitidis = experiment: as above; conditions: Neisseria meningitidis, 5 strains, serial dilution method, read-out: Geometric Mean of MIC
Text: as §4, §5

bacteria = experiment: In vitro antibacterial potency; conditions: compared with corresponding compound lacking 2-methyl group (BB-S515)

| SMILES | MIC (E. coli [5]) | MIC [6] | MIC (S. aureus) | MIC (D. pneumoniae) | MIC (N. gonorrhoeae) | MIC (S. viridans) | MIC (Kl. pneumoniae) | MIC (H. influenzae) | MIC (N. meningitidis) | further results |
| --- | --- | --- | --- | --- | --- | --- | --- | --- | --- | --- |
| CO/N=C(\C(=O)N[C@@H]1C(=O)N2C(C(=O)O)=C(CSc3ccc4nn(C)c(=O)n4n3)CS[C@H]12)c1ccco1 [BB-S510, 7-[(2Z)-2-methoxyimino(fur-2-yl)acetamido]-3-(2-methyl-2,3-dihydro-s-triazolo[4,3-b]pyridazin-3-on-6-ylthiomethyl)-3-cephem-4-carboxylic acid sodium salt] | 2.11 µg/mL | 6.26 µg/mL | 0.62 µg/mL | 0.021 µg/mL | 0.26 µg/mL | 0.13 µg/mL | 6.3 µg/mL | 0.35 µg/mL | 1.03 µg/mL | MIC (S. marcescens [1]): 7.9 µg/mL; MIC (E. coli [2]): 0.1 µg/mL; MIC (E. coli, Cephalosporin-R): 3.1 µg/mL; MIC [3]: 6.3 µg/mL; MIC (P. aeruginosa): > 100 µg/mL; MIC (K. pneumoniae): 2.6 µg/mL; MIC (Shigella, Salmonella): 0.5 µg/mL; MIC (S. aureus, Penicillin-R): 0.1 µg/mL; MIC (Indole (+) Proteus): 0.2 µg/mL; MIC (S. marcescens [4]): 6.3 µg/mL; MIC (E. cloacae): 3.1 µg/mL; MIC (Indole (-) Proteus): 1.1 µg/mL; MIC (Proteus; 6 strains, Mueller-Hinton agar, serial dilution method): 1.39 µg/mL; MIC (S. pyogenes; 5 strains, Mueller-Hinton agar, serial dilution method): 0.0125 µg/mL; in vitro antibacterial potency (bacteria): considerably superior |
| CO/N=C(\C(=O)N[C@@H]1C(=O)N2C(C(=O)O)=C(CSc3ccc4n[nH]c(=O)n4n3)CS[C@H]12)c1ccco1 [BB-S515, 7-[(2Z)-2-methoxyimino(fur-2-yl)acetamido]-3-(2,3-dihydro-s-triazolo[4,3-b]pyridazin-3-on-6-ylthiomethyl)-3-cephem-4-carboxylic acid sodium salt, reference compound] | 2.33 µg/mL | 5.26 µg/mL | 2.48 µg/mL | 0.1 µg/mL | 2.07 µg/mL | 0.59 µg/mL | 3.1 µg/mL | 2.11 µg/mL | 5.45 µg/mL | MIC (Proteus): 1.11 µg/mL; MIC (S. pyogenes): 0.032 µg/mL |
